pKi: −log10 of the molar value.
How the values were obtained:
Rattus norvegicus [1] = species: Rattus norvegicus; test: Tested to induce analgesia in hot plate test, expressed as percent of latency time (p<0.05); type: functional
Rattus norvegicus [2] = species: Rattus norvegicus; test: Tested for percent immobility time in the ring test, expressed as % of control (p<0.01); type: functional
Rattus norvegicus [3] = test: Tested for decrease in rectal temperature 5 min after ip injection; type: functional
Rattus norvegicus [4] = test: Tested for decrease in rectal temperature 10 min after ip injection; type: functional
Rattus norvegicus [5] = species: Rattus norvegicus; test: Tested to induce analgesia in hot plate test, expressed as percent of latency time; type: functional
Cannabinoid receptor 1 = Cannabinoid receptor 1 (Rattus norvegicus, UniProt P20272); test: Concentration required to displace 0.4 nM [3H]SR-141,716A from CB1 receptor in rat brain preparations in the presence of 0.1 mM phenylmethyl sulfonyl fluoride; type: tissue-based
Sequence of Cannabinoid receptor 1 (P20272 whole entry): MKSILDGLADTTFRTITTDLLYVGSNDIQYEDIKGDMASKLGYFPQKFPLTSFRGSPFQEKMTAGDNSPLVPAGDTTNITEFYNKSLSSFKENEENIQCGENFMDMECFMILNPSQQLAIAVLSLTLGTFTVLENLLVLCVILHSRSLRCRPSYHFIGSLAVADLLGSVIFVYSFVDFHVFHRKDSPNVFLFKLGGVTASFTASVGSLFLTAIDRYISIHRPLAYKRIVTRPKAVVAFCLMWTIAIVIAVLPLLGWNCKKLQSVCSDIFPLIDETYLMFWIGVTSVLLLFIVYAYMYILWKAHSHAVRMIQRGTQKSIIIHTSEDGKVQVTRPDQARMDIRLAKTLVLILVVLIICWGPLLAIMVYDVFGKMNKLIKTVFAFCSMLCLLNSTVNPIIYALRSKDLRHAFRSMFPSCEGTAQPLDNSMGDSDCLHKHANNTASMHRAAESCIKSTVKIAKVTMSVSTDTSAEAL

Row | SMILES | Latency time (Rattus norvegicus [1]) [%] | Immobility time (Rattus norvegicus [2]) [%] | Rectal temperature (Rattus norvegicus [3]) [°C] | Rectal temperature (Rattus norvegicus [4]) [°C] | Latency time (Rattus norvegicus [5]) [%] | pKi (Cannabinoid receptor 1)
1 | CC/C=C\C/C=C\C/C=C\C/C=C\C/C=C\CCCC(=O)NCCc1ccc(O)c(O)c1 | 135 | 658 | 1.64 | – | – | –
2 | CCCCC/C=C\C/C=C\C/C=C\CCCCCCC(=O)NCCc1ccc(O)c(O)c1 | – | 693 | 0.43 | 0.7 | 129 | –
3 | CC/C=C\C/C=C\C/C=C\C/C=C\CCCCC(=O)NCCc1ccc(O)c(O)c1 | – | 570 | 1.45 | 1.67 | 120 | –
4 | CC/C=C\C/C=C\C/C=C\C/C=C\C/C=C\C/C=C\CCC(=O)NCCc1ccc(O)c(O)c1 | 296 | 674 | 0.9 | 1.1 | – | –
5 | CC/C=C\C/C=C\C/C=C\C/C=C\C/C=C\CCCCCC(=O)NCCc1ccc(O)c(O)c1 | 144 | 610 | 1.35 | 1.82 | – | 5.86
6 | CCCCC/C=C\C/C=C\CC/C=C\CCCC(=O)NCCc1ccc(O)c(O)c1 | – | 528 | 0.5 | 0.4 | 162 | 5.76
7 | CCCCC/C=C\C/C=C\C/C=C\C/C=C\CCCC(=O)NCCO [ANANDAMIDE] | – | 750 | 1.93 | 2.53 | 165 | –
8 | CCCCC/C=C\C/C=C\C/C=C\C/C=C\CCCC(=O)NCCc1ccc(O)c(O)c1 [ARACHIDONOYL DOPAMINE] | 222 | 500 | 1.35 | 1.27 | – | 6.42

From ChEMBL document CHEMBL1134181, “Synthesis and biological evaluation of novel amides of polyunsaturated fatty acids with dopamine” (Bioorg Med Chem Lett, 2001)
